Measured values published in patent US11090304B2 (Amgen Inc., priority 2018, dated 2021).
pIC50: −log10 of the molar value.

These compounds were tested against GDP-bound KRAS protein (aa 1-169), containing both G12C and C118A amino acid substitutions (Homo sapiens, UniProt P01116, C118A/G12C) (assay: Coupled nucleotide exchange assay (SOS-mediated, AlphaScreen)). Conditions: not given.
Format: biochemical

Sequence of GDP-bound KRAS protein (aa 1-169), containing both G12C and C118A amino acid substitutions (P01116 1-169 isoform P01116-2 G12C/C118A): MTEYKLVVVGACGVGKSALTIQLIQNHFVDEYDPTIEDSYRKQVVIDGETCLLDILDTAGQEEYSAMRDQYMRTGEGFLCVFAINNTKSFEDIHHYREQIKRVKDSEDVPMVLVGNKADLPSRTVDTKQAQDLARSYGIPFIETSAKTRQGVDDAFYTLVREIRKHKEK

SMILES	Coupled exchange IC50 (5 min)
C=CC(=O)N1[C@@H]2C[C@H]1CN(c1nc(=O)n(-c3c(C)ccnc3C(C)C)c3nc(-c4ccccc4F)c(Cl)cc13)C2 (atropisomer, axis not shown; (M)) [Example 135, (M)-6-Chloro-7-(2-fluorophenyl)-1-(4-methyl-2-(2-propanyl)-3-pyridinyl)-4-((1R,5S)-6-(2-propenoyl)-3,6-diazabicyclo[3.1.1]heptan-3-yl)pyrido[2,3-d]pyrimidin-2(1H)-one]	3.32 | nda μM

Same assay, conditions: 5 min compound pre-incubation

SMILES	Coupled exchange IC50 (5 min)
C=CC(=O)N1CCN(c2nc(=O)n(-c3ccccc3C(C)C)c3nc(Cl)c(Cl)cc23)[C@@H](C)C1 (atropisomer, axis not shown; (M)) [Example 61-1-1, (M)-6,7-Dichloro-4-((2S)-2-methyl-4-(2-propenoyl)-1-piperazinyl)-1-(2-(2-propanyl)phenyl)pyrido[2,3-d]pyrimidin-2(1H)-one]	2.94 | nda μM
C=CC(=O)N1CCN(c2nc(=O)n(-c3c(C)ccnc3C(C)C)c3nc(Cl)c(Cl)cc23)[C@@H](C)C1 (atropisomer, axis not shown; (M)) [Example 61-2-2, (M)-6,7-dichloro-1-(4-methyl-2-(2-propanyl)-3-pyridinyl)-4-((2S)-2-methyl-4-(2-propenoyl)-1-piperazinyl)pyrido[2,3-d]pyrimidin-2(1H)-one]	2.37 | nda μM
C=CC(=O)N1CCN(c2nc(=O)n(-c3c(C)ccnc3C(C)C)c3nc(-c4nc(N)ccc4F)c(F)cc23)[C@@H](C)C1 (atropisomer, axis not shown; (M)) [Example 65-2, (M)-7-(6-amino-3-fluoro-2-pyridinyl)-6-fluoro-1-(4-methyl-2-(2-propanyl)-3-pyridinyl)-4-((2S)-2-methyl-4-(2-propenoyl)-1-piperazinyl)pyrido[2,3-d]pyrimidin-2(1H)-one]	1.31 | nda μM
C=CC(=O)N1CCN(c2nc(=O)n(-c3c(C)ccnc3C(C)C)c3nc(-c4cc(F)ccc4O)c(F)cc23)C(C)C1 (atropisomer, axis not shown; (M)) [Example 72-1, (M)-6-Fluoro-7-(5-fluoro-2-hydroxyphenyl)-1-(4-methyl-2-(2-propanyl)-3-pyridinyl)-4-((2S)-2-methyl-4-(2-propenoyl)-1-piperazinyl)pyrido[2,3-d]pyrimidin-2(1H)-one]	1.17 | nda μM
C=CC(=O)N1CCN(c2nc(=O)n(-c3c(C)ccnc3C(C)C)c3nc(-c4cccc(F)c4O)c(F)cc23)[C@@H](C)C1 (atropisomer, axis not shown; (M)) [Example 72-3, (M)-6-fluoro-7-(3-fluoro-2-hydroxyphenyl)-1-(4-methyl-2-(2-propanyl)-3-pyridinyl)-4-((2S)-2-methyl-4-(2-propenoyl)-4-piperazinyl)pyrido[2,3-d]pyrimidin-2(1H)-one]	3.29 | nda μM
C=CC(=O)N1CCN(c2nc(=O)n(-c3c(C)ccnc3C(C)C)c3nc(-c4cccc(O)c4F)c(F)cc23)[C@@H](C)C1 (atropisomer, axis not shown; (M)) [Example 72-5, (M)-6-fluoro-7-(2-fluoro-3-hydroxyphenyl)-1-(4-methyl-2-(2-propanyl)-3-pyridinyl)-4-((2S)-2-methyl-4-(2-propenoyl)-1-piperazinyl)pyrido[2,3-d]pyrimidin-2(1H)-one]	2.91 | nda μM
C=CC(=O)N1C[C@H](C)N(c2nc(=O)n(-c3c(C)ccnc3C(C)C)c3nc(Cl)c(F)cc23)[C@@H](C)C1 (atropisomer, axis not shown; (M)) [Example 72-12, (M)-7-chloro-4-((2S,6S)-2,6-dimethyl-4-(2-propenoyl)-1-piperazinyl)-6-fluoro-1-(4-methyl-2-(2-propanyl)-3-pyridinyl)pyrido[2,3-d]pyrimidin-2(1H)-one]	4.51 | nda μM
C=CC(=O)N1CCN(c2nc(=O)n(-c3ccccc3C(C)C)c3nc(Cl)c(Cl)cc23)[C@@H](C)C1 (atropisomer, axis not shown; (P)) [Example 61-1-2, (P)-6,7-dichloro-4-((2S)-2-methyl-4-(2-propenoyl)-1-piperazinyl)-1-(2-(2-propanyl)phenyl)pyrido[2,3-d]pyrimidin-2(1H)-one]	20.6 | nda μM
C=CC(=O)N1CCN(c2nc(=O)n(-c3c(C)ccnc3C(C)C)c3nc(Cl)c(Cl)cc23)[C@@H](C)C1 (atropisomer, axis not shown; (P)) [Example 61-2-1, (P)-6,7-dichloro-1-(4-methyl-2-(2-propanyl)-3-pyridinyl)-4-((2S)-2 methyl-4-(2-propenoyl)-1-piperazinyl)pyrido[2,3-d]pyrimidin-2(1H)-one]	8.24 | nda μM
C=CC(=O)N1CCN(c2nc(=O)n(-c3ccccc3C3CCC3)c3nc(-c4c(O)cccc4F)c(Cl)cc23)[C@@H](C)C1 (single isomer, unassigned) [Example 54-10-1]	1.21 | nda μM
C=CC(=O)N1CCN(c2nc(=O)n(-c3ccccc3C(C)C)c3nc(-c4cc(OC(F)F)ccc4F)c(Cl)cc23)[C@@H](C)C1 (single isomer, unassigned) [Example 54-51-2]	1.84 | nda μM
C=CC(=O)N1CCN(c2nc(=O)n(-c3ccccc3S(C)(=O)=O)c3nc(-c4c(O)cccc4F)c(Cl)cc23)[C@@H](C)C1 (single isomer, unassigned) [Example 54-56-2]	1.24 | nda μM
C=CC(=O)N1CCN(c2nc(=O)n(-c3ccccc3C(C)C)c3nc(C4=CCCCC4)c(Cl)cc23)[C@@H](C)C1 (single isomer, unassigned) [Example 54-75-2]	10.6 | nda μM

The next lines start with the values.

Coupled exchange IC50 (5 min)	SMILES
0.625 | nda μM	C=CC(=O)N1C[C@@H](C)N(c2nc(=O)n(-c3c(C)ccnc3C(C)C)c3nc(Cl)c(Cl)cc23)[C@@H](C)C1 (atropisomer, axis not shown; (M)) [Example 73-11, (M)-6,7-dichloro-4-(cis-2,6-dimethyl-4-(2-propenoyl)-1-piperazinyl)-1-(4-methyl-2-(2-propanyl)-3-pyridinyl)pyrido[2,3-d]pyrimidin-2(1H)-one]
0.711 | nda μM	C=CC(=O)N1C[C@H](C)N(c2nc(=O)n(-c3c(C)ccnc3C(C)C)c3nc(Cl)c(Cl)cc23)[C@@H](C)C1 (atropisomer, axis not shown; (M)) [Example 73-14, (M)-6,7-dichloro-4-((2S,6S)-2,6-dimethyl-4-(2-propenoyl)-1-piperazinyl)-1-(4-methyl-2-(2-propanyl)-3-pyridinyl)pyrido[2,3-d]pyrimidin-2(1H)-one]
5.54 | nda μM	C=CC(=O)N1C[C@@H](C)N(c2nc(=O)n(-c3c(C)ccnc3C(C)C)c3nc(-c4c(N)cccc4F)c(Cl)cc23)[C@H](C)C1 (atropisomer, axis not shown; (M)) [Example 73-18, (M)-7-(2-amino-6-fluorophenyl)-6-chloro-4-((2R,6R)-2,6-dimethyl-4-(2-propenoyl)-1-piperazinyl)-1-(4-methyl-2-(2-propanyl)-3-pyridinyl)pyrido[2,3-d]pyrimidin-2(1H)-one]
7.55 | nda μM	C=CC(=O)N1C[C@@H](C)N(c2nc(=O)n(-c3c(C)ccnc3C(C)C)c3nc(-c4c(O)cccc4F)c(Cl)cc23)[C@H](C)C1 (atropisomer, axis not shown; (M)) [Example 73-19, (M)-6-chloro-4-((2R,6R)-2,6-dimethyl-4-(2-propenoyl)-1-piperazinyl)-7-(2-fluoro-6-hydroxyphenyl)-1-(4-methyl-2-(2-propanyl)-3-pyridinyl)pyrido[2,3-d]pyrimidin-2(1H)-one]
2.71 | nda μM	C=CC(=O)N1CCN(c2nc(=O)n(-c3c(CO)ccnc3C(C)C)c3nc(-c4ccccc4F)c(Cl)cc23)C(C)C1 (atropisomer, axis not shown; (P)) [Example 84-1, (P)-6-chloro-7-(2-fluorophenyl)-1-(4-(hydroxymethyl)-2-(2-propanyl)-3-pyridinyl)-4-((2S)-2-methyl-4-(2-propenoyl)-1-piperazinyl)pyrido[2,3-d]pyrimidin-2(1H)-one]
28.6 | nda μM	C=CC(=O)N1CCC(Oc2nc(=O)n(-c3c(C)ccnc3C(C)C)c3nc(-c4ccccc4F)c(Cl)cc23)C1 (racemic) [Example 79-2, (M)-6-chloro-7-(2-fluorophenyl)-1-(4-methyl-2-(2-propanyl)-3-pyridinyl)-4-((1-(2-propenoyl)-3-pyrrolidinyl)oxy)pyrido[2,3-d]pyrimidin-2(1H)-one]

Same assay, conditions: read-out: Coupled exchange IC50 (5 min); 5 min compound pre-incubation

pIC50	SMILES
3.93	C=CC(=O)N1CC(Nc2nc(=O)n(-c3c(C)ccnc3C(C)C)c3nc(-c4ccccc4F)c(Cl)cc23)C1 (atropisomer, axis not shown; (M)) [Example 76-1, (M)-6-Chloro-7-(2-fluorophenyl)-1-(4-methyl-2-(2-propanyl)-3-pyridinyl)-4-((1-(2-propenoyl)-3-azetidinyl)amino)pyrido[2,3-d]pyrimidin-2(1H)-one]
5.48	C=CC(=O)N1CC(Oc2nc(=O)n(-c3c(C)ccnc3C(C)C)c3nc(-c4ccccc4F)c(Cl)cc23)C1 (atropisomer, axis not shown; (M)) [Example 79-1, (M)-6-Chloro-7-(2-fluorophenyl)-1-(4-methyl-2-(2-propanyl)-3-pyridinyl)-4-((1-(2-propenoyl)-3-azetidinyl)oxy)pyrido[2,3-d]pyrimidin-2(1H)-one]
5.61	C=CC(=O)N1CCN(c2nc(=O)n(-c3c(C)cccc3C(C)C)c3nc(Cl)c(Cl)cc23)[C@@H](C)C1 (atropisomer, axis not shown; (M)) [Example 112, (M)-6,7-Dichloro-1-(2-methyl-6-(2-propanyl)phenyl)-4-((2S)-2-methyl-4-(2-propenoyl)-1-piperazinyl)pyrido[2,3-d]pyrimidin-2(1H)-one]
6.26	C=CC(=O)N1CCN(c2nc(=O)n(-c3c(C(C)C)ncc(O)c3C)c3nc(-c4ccccc4F)c(Cl)cc23)[C@@H](C)C1 (atropisomer, axis not shown; (P)) [Example 83-1, (P)-6-Chloro-7-(2-fluorophenyl)-1-(5-hydroxy-4-methyl-2-(2-propanyl)-3-pyridinyl)-4-((2S)-2-methyl-4-(2-propenoyl)-1-piperaninyl)pyrido[2,3-d]pyrimidin-2(1H)-one]
